# Molecular target: T1, Nano luciferase (NLuc) (Oplophorus gracilirostris, UniProt Q9GV45, A31E/A60N/A81I/F95D/I117V/K70R/L54V/L99Q/M102K/N193R/P142E/Q151K/Q38R/Q45L/V71I/Y165I)
# T1 construct: His tag (inferred from IMAC purification); made in house; host or cells: E. coli
# Assay: Thermal shift profiles (Thermofluor assay), NLuc
# Format: binding
# Set-up: unit of the concentration uncertain
# Conditions: compound 100 (unit uncertain); for Thermofluor NLuc, ATP: ATP (2 mM)
# Experimental: Thermal stabilization of proteins in the presence of the ligands were determined using Thermofluor technique. MicroAmp optical 384-well plates (Applied Biosystems by Life Technologies), ViiA 7 real-time PCR instrument (Applied Biosystems by Life Technologies) and SYPRO Orange (Life Technologies) were used to test the samples. […]. Proteins were added to the 384-well plate first followed by the compounds. Samples were incubated for 10 mins at room temperature and protected from light. SYPRO Orange dye was diluted to 50x from 5000x stock in a PBS buffer, and 4 µL dye was added to the each well using a multi-channel pipette. The plate was sealed with a MicroAmp optical adhesive film, centrifuged at 1500 RPM for 2 min, and then loaded onto the ViiA 7 real–time PCR instrument for fluorescence intensity measurements upon heating the sample from 25 to 95 °C at 1 °C/min increments. Data was exported to excel, fluorescence intensity data and its first derivative were normalized and plotted using GraphPad Prism to determine Tm. See Supplementary Table 3 for additional details.
# Supplementary Figure 6. Comparison of SDR and Thermofluor analysis of […]
# Temperature °C Temperature °C […]
# Supplementary Table 3. Protocol for Thermofluor assay
# Supplementary Table 3: Protocol for Therm ofluor assay
# Sequence Param eter Value Description […]
# 3 Incubation 10 m ins Room tem perature, protected from light
# 4 Dye 10X Sypro Orange dye in PBS added to the sam ple
# 5 Centrifugation 2 m in Centrifuge for 2 m in at 1500 RPM at RT
# 6 Read ViiA7 Read the therm al unfolding of the protein with ViiA7 real-tim e PCR system
# 4 Prepare 50X dye in PBS: 1 μL Sypro Orange 5000X (Life Technologies), 99 μL ddH2O. Add 4 μL to each well Read the m elting tem perature from 25 to 95 °C using ViiA 7 real tim e PCR instrum ent by following the below instructions Perform therm al denaturation in 384-well assay plate
# (i) Place the assay plate into the Applied Biosystem s ViiA7 real-tim e PCR instrum ent and open the ViiA7 RUO software.
# Under Experim ental Properties, select the following param eters: Set up: […] (20 μl), Experim ent type: MELT CURVE, Reagents used to detect target sequence: OTHER, Ram p Speed: […]
# (ii) Select the Define tab on the left, then select the following param eters: Target nam e: TARGET 1, Reporter: ROX, 6 Quencher: NONE, Passive Reference: NONE
# (iii) Select the Assign tab on the left, then perform the following actions: Highlight all 384 wells in the assay plate and check the box next to ‘Target 1’ on the top left of the plate layout. Note: check the ‘Sam ple’ box on the lower left.
# (iv) Select the Run Method tab on the left, then m ake the following changes to the default Melt Curve profile: Delete Step 2 of the default cycle, change run m ethod to “Step and Hold” with a 1:00 tim e, set the following tem peratures: an initial 2:00 hold at 25 °C (4 °C), ram ping up in increm ents of 1 ° C to a final tem perature of 95 °C (with a 2:00 hold), click on all three cam eras to activate fluorescence detection throughout the experim ent, and Select total volum e per well of 20 μl
# (v) Click on the RUN tab to the left to initiate therm al denaturation.
# T1 sequence (Q9GV45 other isoform, or with tags, fused parts or gaps with the stated changes): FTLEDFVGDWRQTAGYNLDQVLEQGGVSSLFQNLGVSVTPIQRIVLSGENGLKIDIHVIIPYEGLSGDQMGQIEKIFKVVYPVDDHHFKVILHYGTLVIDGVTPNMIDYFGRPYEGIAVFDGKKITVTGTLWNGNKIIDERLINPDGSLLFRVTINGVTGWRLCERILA
structure (smiles),measurement,setting,value
COc1ccc(NC(=O)C2CCN(C(=O)c3ncn4c3COC(c3ccccc3)C4)CC2)cc1Cl (stereo not drawn) [NCGC 00449919],"Thermofluor NLuc, No ATP",20.000 °C,1
same,"Thermofluor NLuc, ATP",20.000 °C,0.908
same,"Thermofluor NLuc, No ATP",20.993 °C,0.737
same,"Thermofluor NLuc, ATP",20.993 °C,0.958
same,"Thermofluor NLuc, No ATP",21.987 °C,0.665
same,"Thermofluor NLuc, ATP",21.987 °C,0.992
same,"Thermofluor NLuc, No ATP",22.980 °C,0.636
same,"Thermofluor NLuc, ATP",22.980 °C,1
same,"Thermofluor NLuc, No ATP",23.974 °C,0.59
same,"Thermofluor NLuc, ATP",23.974 °C,0.981
same,"Thermofluor NLuc, No ATP",24.967 °C,0.577
same,"Thermofluor NLuc, ATP",24.967 °C,0.945
same,"Thermofluor NLuc, No ATP",25.960 °C,0.551
same,"Thermofluor NLuc, ATP",25.960 °C,0.901
same,"Thermofluor NLuc, No ATP",26.954 °C,0.532
same,"Thermofluor NLuc, ATP",26.954 °C,0.858
same,"Thermofluor NLuc, No ATP",27.947 °C,0.492
same,"Thermofluor NLuc, ATP",27.947 °C,0.821
same,"Thermofluor NLuc, No ATP",28.940 °C,0.484
same,"Thermofluor NLuc, ATP",28.940 °C,0.79
same,"Thermofluor NLuc, No ATP",29.934 °C,0.475
same,"Thermofluor NLuc, ATP",29.934 °C,0.766
same,"Thermofluor NLuc, No ATP",30.927 °C,0.424
same,"Thermofluor NLuc, ATP",30.927 °C,0.748
same,"Thermofluor NLuc, No ATP",31.921 °C,0.447
same,"Thermofluor NLuc, ATP",31.921 °C,0.735
same,"Thermofluor NLuc, No ATP",32.914 °C,0.416
same,"Thermofluor NLuc, ATP",32.914 °C,0.726
same,"Thermofluor NLuc, No ATP",33.907 °C,0.402
same,"Thermofluor NLuc, ATP",33.907 °C,0.72
same,"Thermofluor NLuc, No ATP",34.901 °C,0.393
same,"Thermofluor NLuc, ATP",34.901 °C,0.716
same,"Thermofluor NLuc, No ATP",35.894 °C,0.367
same,"Thermofluor NLuc, ATP",35.894 °C,0.71
same,"Thermofluor NLuc, No ATP",36.887 °C,0.355
same,"Thermofluor NLuc, ATP",36.887 °C,0.703
same,"Thermofluor NLuc, No ATP",37.881 °C,0.332
same,"Thermofluor NLuc, ATP",37.881 °C,0.693
same,"Thermofluor NLuc, No ATP",38.874 °C,0.332
same,"Thermofluor NLuc, ATP",38.874 °C,0.683
same,"Thermofluor NLuc, No ATP",39.868 °C,0.308
same,"Thermofluor NLuc, ATP",39.868 °C,0.672
same,"Thermofluor NLuc, No ATP",40.861 °C,0.311
same,"Thermofluor NLuc, ATP",40.861 °C,0.661
same,"Thermofluor NLuc, No ATP",41.854 °C,0.286
same,"Thermofluor NLuc, ATP",41.854 °C,0.65
same,"Thermofluor NLuc, No ATP",42.848 °C,0.281
same,"Thermofluor NLuc, ATP",42.848 °C,0.638
same,"Thermofluor NLuc, No ATP",43.841 °C,0.279
same,"Thermofluor NLuc, ATP",43.841 °C,0.624
same,"Thermofluor NLuc, No ATP",44.835 °C,0.247
same,"Thermofluor NLuc, ATP",44.835 °C,0.61
same,"Thermofluor NLuc, No ATP",45.828 °C,0.259
same,"Thermofluor NLuc, ATP",45.828 °C,0.594
same,"Thermofluor NLuc, No ATP",46.821 °C,0.247
same,"Thermofluor NLuc, ATP",46.821 °C,0.579
same,"Thermofluor NLuc, No ATP",47.815 °C,0.245
same,"Thermofluor NLuc, ATP",47.815 °C,0.563
same,"Thermofluor NLuc, No ATP",48.808 °C,0.238
same,"Thermofluor NLuc, ATP",48.808 °C,0.547
same,"Thermofluor NLuc, No ATP",50.795 °C,0.24
same,"Thermofluor NLuc, ATP",50.795 °C,0.504
same,"Thermofluor NLuc, No ATP",51.788 °C,0.229
same,"Thermofluor NLuc, ATP",51.788 °C,0.47
same,"Thermofluor NLuc, No ATP",52.782 °C,0.227
same,"Thermofluor NLuc, ATP",52.782 °C,0.422
same,"Thermofluor NLuc, No ATP",53.775 °C,0.227
same,"Thermofluor NLuc, ATP",53.775 °C,0.36
same,"Thermofluor NLuc, No ATP",54.768 °C,0.248
same,"Thermofluor NLuc, ATP",54.768 °C,0.285
same,"Thermofluor NLuc, No ATP",55.762 °C,0.239
same,"Thermofluor NLuc, ATP",55.762 °C,0.202
same,"Thermofluor NLuc, No ATP",56.755 °C,0.264
same,"Thermofluor NLuc, ATP",56.755 °C,0.122
same,"Thermofluor NLuc, No ATP",57.748 °C,0.317
same,"Thermofluor NLuc, ATP",57.748 °C,0.055
same,"Thermofluor NLuc, No ATP",58.742 °C,0.38
same,"Thermofluor NLuc, ATP",58.742 °C,0.012
same,"Thermofluor NLuc, No ATP",59.735 °C,0.412
same,"Thermofluor NLuc, ATP",59.735 °C,0
same,"Thermofluor NLuc, No ATP",60.729 °C,0.472
same,"Thermofluor NLuc, ATP",60.729 °C,0.021
same,"Thermofluor NLuc, No ATP",61.722 °C,0.524
same,"Thermofluor NLuc, ATP",61.722 °C,0.072
same,"Thermofluor NLuc, No ATP",62.715 °C,0.52
same,"Thermofluor NLuc, ATP",62.715 °C,0.145
same,"Thermofluor NLuc, No ATP",63.709 °C,0.568
same,"Thermofluor NLuc, ATP",63.709 °C,0.233
same,"Thermofluor NLuc, No ATP",65.695 °C,0.566
same,"Thermofluor NLuc, ATP",65.695 °C,0.416
same,"Thermofluor NLuc, No ATP",66.689 °C,0.551
same,"Thermofluor NLuc, ATP",66.689 °C,0.499
same,"Thermofluor NLuc, No ATP",68.676 °C,0.541
same,"Thermofluor NLuc, ATP",68.676 °C,0.632
same,"Thermofluor NLuc, No ATP",69.669 °C,0.515
same,"Thermofluor NLuc, ATP",69.669 °C,0.682
same,"Thermofluor NLuc, No ATP",70.662 °C,0.497
same,"Thermofluor NLuc, ATP",70.662 °C,0.723
same,"Thermofluor NLuc, No ATP",71.656 °C,0.488
same,"Thermofluor NLuc, ATP",71.656 °C,0.755
same,"Thermofluor NLuc, No ATP",72.649 °C,0.477
same,"Thermofluor NLuc, ATP",72.649 °C,0.781
same,"Thermofluor NLuc, No ATP",73.643 °C,0.428
same,"Thermofluor NLuc, ATP",73.643 °C,0.8
same,"Thermofluor NLuc, No ATP",74.636 °C,0.405
same,"Thermofluor NLuc, ATP",74.636 °C,0.812
same,"Thermofluor NLuc, No ATP",75.629 °C,0.392
same,"Thermofluor NLuc, ATP",75.629 °C,0.819

# Reference: paper PMC12064818, “A general assay platform to study protein pharmacology using ligand-dependent structural dynamics” (Nature Communications, 2025)
